Several values for one entry are separate records, joined by “and”; a condition that tells them apart may be missing. Equal entries are not always repeated. Entries after “also recorded” stand apart in the source; their conditions may differ.
Columns and labels:
[1] = Phase 2a study, safety (adverse events); settings: for Candida infection: patients with at least one event: BID, N = 23
[2] = Phase 2a study, plasma pharmacokinetics; type: in vivo, human
[3] = system: moderate or severe atopic dermatitis; test: Phase 2a study, efficacy (EASI/mEASI, PP-NRS); type: in vivo, human
From the text: (§1) PK blood draws assessed systemic exposure.
Fifty (50) subjects, aged 18-65 years, male and female were selected to use either a topical formulation comprising 2% w/w Compound I or a placebo. Pertinent inclusion criteria for the study included: (i) a diagnosis of atopic dermatitis (AD) fulfilled the specified diagnostic criteria of Hanifin and Rajka (Hanifin J M, Rajka G. Diagnostic features of atopic dermatitis. Acta Derm Venereol. Suppl 1980; 92: 44-7, which is hereby incorporated by reference in its entirety); (ii) a 6-month history of AD; (iii) no significant AD flares for 4 weeks prior; (iv) at least 1 lesion measuring […], but not located on the hands, feet, or genitalia; (v) a stable diagnosis of moderate or severe (Investigator's Global Assessment (IGA) score of 3 or 4); (vi) Eczema Area and Severity Index (EASI) score of ≤48; and (vii) have AD affecting 3% to 20% of Body Surface Area (BSA) (not including head, […], soles of feet, groin, and genitalia).
The 50 subjects were randomized into 2% Compound I treatment (n=23) and vehicle treatment (n=25) groups. Two of the subjects were randomized but not treated. Of the allocated subjects, 91% (n=21) of the Compound I treatment group and 72% (n=18) completed the study. The demographics and baseline characteristics of the study subjects is provided below in Table 3.
(§2) The topical formulation was applied topically twice per day, approximately 8 to 12 hours apart. Up to 8 mL, 1 mL at a time, is applied to an identified AD target area of the subject and rubbed into said area by the subject to achieve a thin film on the skin. Less than 8 mL may be used if less is required to fully cover the identified AD target area. Subjects document symptoms of AD, such as itching, on a daily basis. Subjects were asked to abstain from washing the treated area within 6 hours after application, minimize sun exposure, refrain from using moisturizers, emollients, and sunscreen on the treatment areas, and refrain from activities that would cause profuse sweating (e.g., exercise) for a period of 6 hours after each application. The study ran 4 weeks. On days 1, 8, and 15, a pharmacokinetic sample (e.g., blood) was collected from each subject about 2 hours after application of the topical formulation. On day 28, the following pharmacokinetic samples were collected: • Subgroup 1: One sample before application and one sample at 0.5 to 2.5 hours post application • Subgroup 2: One sample at 2.5 to 5 hours post application and one sample at least 2 hours later • Subgroup 3: One sample at 5 to 8 hours post application and one sample at least 2 hours later (prior to the subsequent application)
On each of these days 1, 8, 15, and 28, symptoms of AD in each subject were evaluated by EASI score, IGA, PP-NRS, and BSA. Primary efficacy of treatment was measured by a percent change from baseline EASI (EASI at day 1) to EASI at day 28.
Further measurements of efficacy included percent change in EASI between each of days 1, 8, 15, and 28 as well as change from baseline and/or prior evaluation of IGA, AD BSA, and PP-NRS on days 8, 15, and 28; percent of subjects achieving IGA scores of 0 to 1 combined with an improvement of 2 or more points from baseline by day 28; proportion of subjects who achieve 50%, 75%, and 90% improvement in EASI score (compared to baseline).
The primary efficacy endpoint of this trial was the percent change from baseline in the Eczema Area and Severity Index (EASI) score at week 4.

[4] = Phase 2a study, plasma pharmacokinetics; type: in vivo, human; remark: listed apart in the source
Description: as §1, §2

CCOC(=O)c1cnc2[nH]ccc2c1N[C@@H]1CCCN(C(=O)CC#N)C1 [Compound I, ethyl (R)-4-((1-(2-cyanoacetyl)piperidin-3-yl)amino)-1H-pyrrolo[2,3-b]pyridine-5-carboxylate]
Deaths / serious adverse events ([1]; 4 weeks BID): No deaths or SAEs were reported; also recorded: No serious adverse events were reported | Candida infection: patients with at least one event ([1]; Mild): 0 | Candida infection: patients with at least one event ([1]; Moderate): 1 (4.3) | Candida infection: patients with at least one event ([1]; Severe): 0 | Plasma Compound I CONC ([2]; subject 004-0002, Day 8, hour 0 Predose): 0.188 ng/mL | Plasma Compound I CONC ([2]; subject 004-0002, Day 15, hour 0 Predose): 0.100 ng/mL | Plasma Compound I CONC ([2]; subject 004-0004, Day 15, hour 0 Predose, LLOQ 0.100): <LLOQ | Plasma Compound I CONC ([2]; subject 004-0008, Day 1, hour 0 Predose, LLOQ 0.100): <LLOQ | Plasma Compound I CONC ([2]; subject 012-0001, Day 8, hour 0 Predose): 1.43 ng/mL | Plasma Compound I CONC ([2]; subject 13-0001, Day 15, hour 0 Predose): 0.598 ng/mL | Mean decrease in PP-NRS score relative to baseline ([3]; after one week, 2% BID): 1.72 | Patients achieving 50% improvement in EASI score (EASI 50) ([3]; end of week 1 (day 8), 2% BID): 34.8% | Patients achieving 75% improvement in EASI score (EASI 75) ([3]; end of week 1 (day 8), 2% BID): 13.0% | Patients achieving 90% improvement in EASI score (EASI 90) ([3]; end of week 1 (day 8), 2% BID): 4.3% | Patients achieving 50% improvement in EASI score (EASI 50) ([3]; end of week 2 (day 15), 2% BID): 69.6% | Patients achieving 75% improvement in EASI score (EASI 75) ([3]; end of week 2 (day 15), 2% BID): 21.7% | Patients achieving 90% improvement in EASI score (EASI 90) ([3]; end of week 2 (day 15), 2% BID): 8.7% | Patients achieving 50% improvement in EASI score (EASI 50) ([3]; end of week 4 (day 28), 2% BID): 91.3% | Patients achieving 75% improvement in EASI score (EASI 75) ([3]; end of week 4 (day 28), 2% BID): 65.2% | Patients achieving 90% improvement in EASI score (EASI 90) ([3]; end of week 4 (day 28), 2% BID): 30.4% | Reduction in mean mEASI score from baseline ([3]; week 4 (day 28), 2.0% topical solution BID, FAS N=23, primary endpoint): 74.4% and 74.5% | Mean drug levels in plasma relative to IC50 ([4]; 2% BID topical, 4 weeks): ≤ 5 % of the IC50 | Plasma samples with Compound I levels below the lower limit of quantitation of 0.1 ng/mL ([4]; 4-week topical treatment, 2% BID): Greater than 86% | Plasma samples with concentration of the active compound below 1 ng/ml ([4]; 4-week topical treatment, treatment arm): greater than 86% | Average plasma concentration ([4]; Day 1, 2 hr post dose): 1.604 ng/mL | Average plasma concentration ([4]; Day 8, 2 hr post dose): 0.519 ng/mL | Average plasma concentration ([4]; Day 28, pre dose): 0.328 ng/mL | All plasma concentrations relative to IC50 ([4]; IC50=36 ng/mL, 2% BID topical): less than half of the IC50 | Plasma Compound I CONC ([4]; subject 004-0002, Day 1, hour 0 Predose, LLOQ 0.100): <LLOQ | Plasma Compound I CONC ([4]; subject 004-0002, Day 1, hour 2, LLOQ 0.100): <LLOQ | Plasma Compound I CONC ([4]; subject 004-0002, Day 8, hour 2): 0.229 ng/mL | Plasma Compound I CONC ([4]; subject 004-0002, Day 15, hour 2, LLOQ 0.100): <LLOQ | Plasma Compound I CONC ([4]; subject 004-0002, Day 28/ET, 0.5-2.5 hr): 0.168 ng/mL | Plasma Compound I CONC ([4]; subject 004-0002, Day 28/ET, hour 0 Predose): 0.165 ng/mL | Plasma Compound I CONC ([4]; subject 004-0004, Day 1, hour 0 Predose, LLOQ 0.100): <LLOQ | Plasma Compound I CONC ([4]; subject 004-0004, Day 1, hour 2, LLOQ 0.100): <LLOQ | Plasma Compound I CONC ([4]; subject 004-0004, Day 8, hour 0 Predose, LLOQ 0.100): <LLOQ | Plasma Compound I CONC ([4]; subject 004-0004, Day 8, hour 2, LLOQ 0.100): <LLOQ | Plasma Compound I CONC ([4]; subject 004-0004, Day 15, hour 2, LLOQ 0.100): <LLOQ | Plasma Compound I CONC ([4]; subject 004-0004, Day 28/ET, 5-8 hr, LLOQ 0.100): <LLOQ | Plasma Compound I CONC ([4]; subject 004-0004, Day 28/ET, 7-10 hr): 0.104 ng/mL | Plasma Compound I CONC ([4]; subject 004-0008, Day 1, hour 2): 1.62 ng/mL | Plasma Compound I CONC ([4]; subject 004-0008, Day 8, hour 0 Predose): 0.616 ng/mL | Plasma Compound I CONC ([4]; subject 004-0008, Day 8, hour 2): 0.639 ng/mL | Plasma Compound I CONC ([4]; subject 004-0008, Day 15, hour 0 Predose): 0.740 ng/mL | Plasma Compound I CONC ([4]; subject 004-0008, Day 15, hour 2): 0.512 ng/mL | Plasma Compound I CONC ([4]; subject 004-0008, Day 28/ET, 2.5-5 hr): 0.543 ng/mL | Plasma Compound I CONC ([4]; subject 004-0008, Day 28/ET, 4.5-7 hr): 0.441 ng/mL | Plasma Compound I CONC ([4]; subject 012-0001, Day 1, hour 0 Predose, LLOQ 0.100): <LLOQ | Plasma Compound I CONC ([4]; subject 012-0001, Day 1, hour 2): 14.9 ng/mL | Plasma Compound I CONC ([4]; subject 012-0001, Day 8, hour 2): 1.50 ng/mL | Plasma Compound I CONC ([4]; subject 012-0001, Day 15, hour 0 Predose): 0.521 ng/mL | Plasma Compound I CONC ([4]; subject 012-0001, Day 15, hour 2): 1.05 ng/mL | Plasma Compound I CONC ([4]; subject 012-0001, Day 28/ET, 0.5-2.5 hr): 3.71 ng/mL | Plasma Compound I CONC ([4]; subject 012-0001, Day 28/ET, hour 0 Predose): 1.23 ng/mL | Plasma Compound I CONC ([4]; subject 012-0017, Day 1, hour 0 Predose, LLOQ 0.100): <LLOQ | Plasma Compound I CONC ([4]; subject 012-0017, Day 1, hour 2): 2.45 ng/mL | Plasma Compound I CONC ([4]; subject 012-0017, Day 8, hour 0 Predose): 0.845 ng/mL | Plasma Compound I CONC ([4]; subject 012-0017, Day 8, hour 2): 0.459 ng/mL | Plasma Compound I CONC ([4]; subject 012-0017, Day 15, hour 0 Predose): 11.1 ng/mL | Plasma Compound I CONC ([4]; subject 012-0017, Day 15, hour 2): 5.26 ng/mL | Plasma Compound I CONC ([4]; subject 012-0017, Day 28/ET, 5-8 hr): 0.536 ng/mL | Plasma Compound I CONC ([4]; subject 012-0017, Day 28/ET, 7-10 hr): 0.704 ng/mL | Plasma Compound I CONC ([4]; subject 13-0001, Day 1, hour 0 Predose, LLOQ 0.100): <LLOQ | Plasma Compound I CONC ([4]; subject 13-0001, Day 1, hour 2): 12.9 ng/mL | Plasma Compound I CONC ([4]; subject 13-0001, Day 8, hour 0 Predose): 0.914 ng/mL | Plasma Compound I CONC ([4]; subject 13-0001, Day 8, hour 2): 1.79 ng/mL | Plasma Compound I CONC ([4]; subject 13-0001, Day 15, hour 2): 1.86 ng/mL | Plasma Compound I CONC ([4]; subject 13-0001, Day 28/ET, 0.5-2.5 hr): 3.99 ng/mL | Plasma Compound I CONC ([4]; subject 13-0001, Day 28/ET, hour 0 Predose): 0.530 ng/mL | Highest plasma concentration in any subject ([4]; whole study): ≤ 15 ng/mL | Samples with plasma concentrations > 1/10th the IC50 ([4]; whole study): 6 total samples | Subjects with plasma concentrations > 1/10th the IC50 ([4]; whole study): 3 subjects

Reference: patent US20240139170A1, “TOPICAL FORMULATIONS OF A JAK 1/3 INHIBITOR AND METHODS OF USE THEREOF FOR TREATMENT OF ATOPIC DERMATITIS AND OTHER SKIN CONDITIONS” (ACLARIS THERAPEUTICS, INC., priority 2021, published 2024)
